Assay results published in patent publication US8716242B2, “β-hairpin peptidomimetics” (priority 2009, dated 2014).
Numbered stars: 1 amine (or outer) side, 2 acyl side, 3 side chain; on linkers, the order of the positions; unused ones are H or OH. Bridge positions count the residues as written; N and C are the ends. Square brackets hold non-standard residues; d marks the D form. Side chains are listed from the residue outwards. Peptide text beside a SMILES is read from it. * marks the point of attachment. γGlu = O=C(O)[C@H](CCC(=O)[*:2])N[*:1]; Lauroyl = CCCCCCCCCCCC(=O)*; Dab = NCC[C@H](N)C(=O)O

Tests used:
[1] = Plasma stability in human plasma; format: in vitro ADME; details: human plasma, 37° C.; for remaining at 24 h, 10 μM: 1440 min, read-out: human pl. cpd left at 1440 min; for human pl. T1/2: up to 1440 min
Outline: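 Peptides (1 mM DMSO/H2O stock) were spiked into human or mouse plasma in triplicate and incubated at 37 °C, sampling from 0 to 1440 min. Samples were quenched in formic acid/acetonitrile and analysed by LC/MS MRM. Remaining percent of t=0 was calculated and T1/2 derived by trend fitting.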

[2] = in vivo; parameters: species or system male CD-1 mice; details: for bioavailability / AUC(0-inf) / Cmax / Tmax / half-life / level at 0.083 h / level at 0.25 h / level at 0.5 h / level at 1 h / level at 2 h / level at 4 h / level at 8 h / level at 12 h / level at 24 h: male, CD-1, mouse; for AUC0-∞ dcor. / Cmax dcor.: mouse
Method: 2.7. Pharmacokinetic Study (PK)
Pharmacokinetic study after intravenous (i.v.) and subcutaneous (s.c.) administration was performed for the compounds of Ex. 17, Ex. 20, Ex. 25, Ex. 26, Ex. 28, and Ex. 29. […] The compounds of Ex. 17, Ex. 25, Ex. 26, Ex. 28, and Ex. 29 were administered i.v. and s.c. as a cassette whereas for the compound of Ex. 20a single i.v. and s.c. administration was accomplished.
30 grams (±20%) male CD-1 mice obtained from Janvier, France, were used in the study testing the cassette compounds. The vehicle, phosphate buffered saline containing 5% DMSO, was added to give a final concentration of 0.5 mg/mL of the compounds (i.v. route and s.c. route). The volume was 2 mL/kg i.v. and 10 mL/kg s.c. and the cassette compounds were injected to give a final intravenous dose of 1 mg/kg and an subcutaneous dose of 5 mg/kg. Approximately 500 μL of blood were removed from the opened heart at predetermined time intervals (5, 15, 30 min and 1, 2, 4, 8 and 12 hours for the i.v. study and 5, 15, 30 min and 1, 2, 4, 8, 12 and 24 hours for the s.c. study) and added to heparinized tubes. Plasma was removed from pelleted cells upon centrifugation and frozen at −80° C. prior to HPLC-MS analysis. For the compound of Ex. 20 30 grams (±20%) male CD-1 mice obtained from Charles River Laboratories Deutschland GmbH were used. The vehicle, phosphate buffered saline, was added to give a final concentration of 0.2 mg/mL of the compound (i.v. route) and 1 mg/mL (s.c. route). The volume was 5 mL/kg i.v. and s.c. and the compound was injected to give a final intravenous dose of 1 mg/kg and an subcutaneous dose of 5 mg/kg. Approximately 300-400 μL of blood was removed under light isoflurane anesthesia by cardiac puncture at predetermined time intervals (5, 15, 30 min and 1, 2, 3, 4, 6, 12 hours for the i.v. study and 15, min and 1, 2, 4, 6, 8, 12 and 24 hours for the s.c. study) and added to heparinized tubes. Plasma was removed from pelleted cells upon centrifugation and frozen at −80° C. prior to HPLC-MS analysis.
Preparation of the Plasma Calibration Samples
“Blank” mouse plasma from untreated animals was used. Aliquots of plasma of 0.2 mL each were spiked with 50 ng of propranolol (Internal Standard, IS), (sample preparation by solid phase extraction on OASIS® HLB cartridges [Waters]) and with known amounts of Ex. 20 in order to obtain 9 plasma calibration samples in the range 10-5000 nM. The OASIS® HLB cartridges were conditioned with 1 mL of methanol and then with 1 mL of 1% NH3 in water. Samples were then diluted with 700 μL of 1% NH3 in water and loaded. The plate was washed with 1 mL of methanol/1% NH3 in water 5/95 (v/v). Elution was performed using 1 mL of 0.1% TFA in methanol.
The plate containing eluates was introduced into the concentrator system and taken to dryness. The residues were dissolved in 100 μL of formic acid 0.1%/acetonitrile, 95/5 (v/v) and analysed in the HPLC/MS on a reverse phase analytical column (Jupiter C18, 50×2.0 mm, 5 μm, Phenomenex), using gradient elution (mobile phases A: 0.1% formic acid in water, B: acetonitrile; from 5% B to 100% B in 2 min.).
Preparation of Plasma Samples
Samples coming from animal treatments were pooled in order to obtain an appropriate volume for the extraction. If the total volume obtained was less than 0.2 mL the appropriate amount of “blank” mouse plasma was added in order to keep the matrix identical to the calibration curve. Samples were than spiked with IS and processed as described for the calibration curve.
Pharmacokinetic Evaluation
In order to perform PK analysis pooled plasma data (n=3 mice) was used. PK parameters were calculated by WinNonLin™ software version 5.2.1 (Pharsight—A Certara™ Company, Mountain View, Calif. 94041 USA) using non-compartmental analysis with a linear up/log down trapezoidal calculation method. For the terminal elimination phase at least 3 time points and a correlation coefficient greater than 0.85 was used. […]

| SMILES | remaining at 24 h, 10 μM [1] | human pl. T1/2 [1] | bioavailability [2] | AUC(0-inf) ([2]; iv, 1 mg/kg) | Cmax ([2]; iv, 1 mg/kg) | Tmax ([2]; iv, 1 mg/kg) | half-life ([2]; iv, 1 mg/kg) | level at 0.083 h ([2]; iv, 1 mg/kg) | level at 0.25 h ([2]; iv, 1 mg/kg) | level at 0.5 h ([2]; iv, 1 mg/kg) | level at 1 h ([2]; iv, 1 mg/kg) | level at 2 h ([2]; iv, 1 mg/kg) | level at 4 h ([2]; iv, 1 mg/kg) | level at 8 h ([2]; iv, 1 mg/kg) | AUC(0-inf) ([2]; sc, 5 mg/kg) | Cmax ([2]; sc, 5 mg/kg) | Tmax ([2]; sc, 5 mg/kg) | half-life ([2]; sc, 5 mg/kg) | level at 0.25 h ([2]; sc, 5 mg/kg) | level at 0.5 h ([2]; sc, 5 mg/kg) | other results |
| --- | --- | --- | --- | --- | --- | --- | --- | --- | --- | --- | --- | --- | --- | --- | --- | --- | --- | --- | --- | --- | --- |
| CCCCCCCCCCCC(=O)N[C@@H](CCC(=O)NCCCC[C@@H]1NC(=O)[C@H](Cc2ccc(O)cc2)NC(=O)[C@@H]2CSSC[C@H](NC(=O)[C@H](Cc3ccc(O)cc3)NC(=O)[C@H](Cc3c[nH]cn3)NC(=O)[C@H](Cc3ccc(O)cc3)NC(=O)[C@@H]3CCCN3C(=O)[C@H]3CCCN3C(=O)[C@H](CCCCN)NC1=O)C(=O)N[C@@H](CO)C(=O)N[C@@H](C)C(=O)N1CCC[C@@H]1C(=O)N[C@@H](CCN)C(=O)N[C@@H](CCCNC(=N)N)C(=O)N[C@@H](Cc1ccc(O)cc1)C(=O)N2)C(=O)O [Ex. 25] (cyclo(YHYCSA[dP][Dab]RYCYK([γGlu-Lauroyl])K[dP]P); disulfide 4-11) | 78% | 24 h | 142% | 3480 ng·h/mL | 2970 ng/mL | 0.1 h | 2.5 h | 2970 ng/mL | 2190 ng/mL | 1990 ng/mL | 1600 ng/mL | 160 ng/mL | 180 ng/mL | 18 ng/mL | 24700 ng·h/mL | 2190 ng/mL | 2 h | 4.7 h | 44 ng/mL | 205 ng/mL | level at 12 h ([2]; iv, 1 mg/kg): 16 ng/mL; level at 1 h ([2]; sc, 5 mg/kg): 517 ng/mL; level at 2 h ([2]; sc, 5 mg/kg): 2190 ng/mL; level at 4 h ([2]; sc, 5 mg/kg): 1640 ng/mL; level at 8 h ([2]; sc, 5 mg/kg): 1890 ng/mL; level at 12 h ([2]; sc, 5 mg/kg): 1210 ng/mL; level at 24 h ([2]; sc, 5 mg/kg): 108 ng/mL; AUC0-∞ dcor. ([2]; iv, 1 mg/kg): 3480.0 kg·ng·h/mg/mL; Cmax dcor. ([2]; iv, 1 mg/kg): 2970.0 kg·ng/mg/mL; AUC0-∞ dcor. ([2]; sc, 5 mg/kg): 4944.7 kg·ng·h/mg/mL; Cmax dcor. ([2]; sc, 5 mg/kg): 437.4 kg·ng/mg/mL |
| CCCCCCCCCCCC(=O)N[C@@H](CCC(=O)NCCCC[C@@H]1NC(=O)[C@H](Cc2ccc(O)cc2)NC(=O)[C@@H]2CSSC[C@H](NC(=O)[C@H](C)NC(=O)[C@H](Cc3c[nH]cn3)NC(=O)[C@H](Cc3ccc(O)cc3)NC(=O)[C@@H]3CCCN3C(=O)[C@H]3CCCN3C(=O)[C@H](CCCCN)NC1=O)C(=O)N[C@@H](CCCNC(=N)N)C(=O)N[C@@H](C)C(=O)N1CCC[C@@H]1C(=O)N[C@@H](CCN)C(=O)N[C@@H](CCCNC(=N)N)C(=O)N[C@@H](Cc1ccc(O)cc1)C(=O)N2)C(=O)O [Ex. 26] (cyclo(YHACRA[dP][Dab]RYCYK([γGlu-Lauroyl])K[dP]P); disulfide 4-11) | 82% | 24 h | 142% | 3400 ng·h/mL | 3470 ng/mL | 0.1 h | 1.3 h | 3470 ng/mL | 2530 ng/mL | 1980 ng/mL | 1540 ng/mL | 219 ng/mL | 98 ng/mL | 10 ng/mL | 24000 ng·h/mL | 3990 ng/mL | 2 h | 2.9 h | 221 ng/mL | 779 ng/mL | level at 1 h ([2]; sc, 5 mg/kg): 1750 ng/mL; level at 2 h ([2]; sc, 5 mg/kg): 3990 ng/mL; level at 4 h ([2]; sc, 5 mg/kg): 2530 ng/mL; level at 8 h ([2]; sc, 5 mg/kg): 1600 ng/mL; level at 12 h ([2]; sc, 5 mg/kg): 524 ng/mL; level at 24 h ([2]; sc, 5 mg/kg): 23 ng/mL; AUC0-∞ dcor. ([2]; iv, 1 mg/kg): 3395.6 kg·ng·h/mg/mL; Cmax dcor. ([2]; iv, 1 mg/kg): 3467.0 kg·ng/mg/mL; AUC0-∞ dcor. ([2]; sc, 5 mg/kg): 4806.6 kg·ng·h/mg/mL; Cmax dcor. ([2]; sc, 5 mg/kg): 797.4 kg·ng/mg/mL |
